Assay results: patent US5491155A, “Substituted thiadiazoles, compositions containing them and their use as antimicrobial and marine antifouling agents” (The Dow Chemical Company, priority 1994, dated 1996)
Converted amounts (≈) assume the structure as drawn. Where two headings read alike, the source gives them in different places.

Legend:
[1] = test system: Pseudomonas aeruginosa (PRD-10); test: MIC in nutrient agar, Pseudomonas aeruginosa (PRD-10); assay type: cell-based, Pseudomonas aeruginosa (ATCC 15442); settings: PRD, 48 hours, read-out: Minimum Inhibitory Concentration (MIC)
Method: (§1) The minimum inhibitory concentration (MIC) for the compounds listed in Table I is determined for bacteria, using nutrient agar, and 7 yeast and fungi, using malt yeast agar. A one percent solution of the test compound is prepared in a mixture of acetone and water.
(§2) Nutrient agar is prepared at pH 6.8, representing a neutral medium, and at pH 8.2, representing an alkaline medium. The nutrient agars are prepared by adding 23 g of nutrient agar to one-liter of deionized water. In addition, the alkaline medium is prepared by adjusting a 0.04M solution of N-(tris-(hydroxymethyl)methyl)glycine buffered deionized water with concentrated sodium hydroxide to a pH of 8.5.
(§3) The test tubes containing the agar are cooled in a water bath until the temperature of the agar is 48° C. Then, an appropriate amount of the one percent solution of the test compound is added (except in the controls where no compound is added) to the respective test tubes so that the final concentrations are 500, 250, 100, 50, 25, 10, 2.5, 1.0 and zero parts per million of the test compound in the agar, thus having a known concentration of test compound dispersed therein. The contents of the test tubes are then transferred to respective petri plates. After drying for 24 hours, the petri plates containing nutrient agar are inoculated with bacteria and those containing malt yeast agar are inoculated with yeast and fungi.
(§4) The inoculation with bacteria is accomplished by using the following procedure. Twenty-four hour-cultures of each of the bacteria are prepared by incubating the respective bacteria in tubes containing nutrient broth for 24 hours at 30° C. in a shaker. Dilutions of each of the 24 hour-cultures are made so that nine separate suspensions (one for each of the nine test bacteria) are made, each containing 10^8 colony forming units (CFU) per mL of suspension of a particular bacteria. Aliquots of 0.3 mL of each of the bacterial suspensions are used to fill the individual wells of Steer's Replicator. For each microbial suspension, 0.3 mL was used to fill three wells (i.e., three wells of 0.3 mL each) so that for the nine different bacteria, 27 wells are filled. The Steer's Replicator is then used to inoculate both the neutral and alkaline pH nutrient agar petri plates.
(§5) The inoculated petri plates are incubated at 30° C. for 48 hours and then read to determine if the test compound which is incorporated into the agar prevented growth of the respective bacteria.
(§6) Table II lists the bacteria, yeast and fungi used in the MIC test described above along with their respective American Type Culture Collection (ATCC) identification numbers.
(§7) In Tables III and IV, the MIC values of the compounds described in Table I as compared to the MIC of a standard commercial preservative (with 1-(3-chloroalkyl)-3,5,7-triaza-1-azoniaadamantane chloride as the active agent and referred to in Tables III and IV as "STANDARD I") are set forth for the bacteria organisms and yeast/fungi organisms which are listed in Table II.

Enterobacter aerogenes = test: MIC in nutrient agar, Enterobacter aerogenes; assay type: cell-based, Enterobacter aerogenes (ATCC 13048); settings: Klebsiella aerogenes, Ea, 30° C., 48 hours, read-out: Minimum Inhibitory Concentration (MIC)
Method: as §1, §2, §3, §4, §5, §6, §7

Klebsiella pneumonias = test: MIC in nutrient agar, Klebsiella pneumonias; assay type: cell-based, Klebsiella pneumonias (ATCC 8308); settings: Kp, 48 hours, read-out: Minimum Inhibitory Concentration (MIC)
Method: as §1, §2, §3, §4, §5, §6, §7

Pseudomonas aeruginosa = test: MIC in nutrient agar, Pseudomonas aeruginosa (Pa); assay type: cell-based, Pseudomonas aeruginosa (ATCC 10145); settings: Pa, 48 hours, read-out: Minimum Inhibitory Concentration (MIC)
Method: as §1, §2, §3, §4, §5, §6, §7

Trichoderma viride = test: MIC in malt yeast agar, Trichoderma viride; assay type: cell-based, Trichoderma viride (ATCC 8678); settings: Tv; malt yeast agar; 30° C.; 72 hours for fungi; read-out: Minimum Inhibitory Concentration (MIC)
Method: as §1
(§8) Malt yeast agar is prepared by adding 3 g yeast extract and 45 g malt agar per liter of deionized water. The specific agar is dispensed in 30 mL aliquots into 25×200 mm test tubes, capped and autoclaved for 15 minutes at 115° C.
as §3
(§9) The inoculation with the yeast and fungi is accomplished as follows. Cultures of yeast and fungi are incubated for seven days on malt yeast agar at 30° C. These cultures are used to prepare suspensions by the following procedure. A suspension of each organism is prepared by adding 10 mL of sterile saline and 10 microliters of octylphenoxy polyethoxy ethanol to the agar slant of yeast or fungi. The sterile saline/octylphenoxy polyethoxy ethanol solution is then agitated with a sterile swab to suspend the microorganism grown on the slant. Each resulting suspension is diluted into sterile saline (1 part suspension: 9 parts sterile saline). Aliquots of these dilutions are placed in individual wells of Steer's Replicator and petri plates inoculated as previously described. The petri plates are incubated at 30° C. and read after 48 hours for yeast and 72 hours for fungi.
as §6, §7

Saccharomyces cerevisiae = test: MIC in malt yeast agar, Saccharomyces cerevisiae; assay type: cell-based, Saccharomyces cerevisiae (ATCC 4105); settings: Sc, malt yeast agar, 30° C., 48 hours for yeast, read-out: Minimum Inhibitory Concentration (MIC)
Method: as §1, §8, §3, §9, §6, §7

Aureobasidium pullulan = test: MIC in malt yeast agar, Aureobasidium pullulan; assay type: cell-based, Aureobasidium pullulan (ATCC 16622); settings: Ap; malt yeast agar; 30° C.; 72 hours for fungi; read-out: Minimum Inhibitory Concentration (MIC)
Method: as §1, §8, §3, §9, §6, §7

Staphylococcus aureus = test: MIC in nutrient agar, Staphylococcus aureus; assay type: cell-based, Staphylococcus aureus (ATCC 6538); settings: Sa, 48 hours, read-out: Minimum Inhibitory Concentration (MIC)
Method: as §1, §2, §3, §4, §5, §6, §7

Salmonella choleraesuis = test: MIC in nutrient agar, Salmonella choleraesuis; assay type: cell-based, Salmonella choleraesuis (ATCC 10708); settings: Salmonella enterica, Sc, 48 hours, read-out: Minimum Inhibitory Concentration (MIC)
Method: as §1, §2, §3, §4, §5, §6, §7

Penicillium chrysogenum = test: MIC in malt yeast agar, Penicillium chrysogenum; assay type: cell-based, Penicillium chrysogenum (ATCC 9480); settings: Pc; malt yeast agar; 30° C.; 72 hours for fungi; read-out: Minimum Inhibitory Concentration (MIC)
Method: as §1, §8, §3, §9, §6, §7

Escherichia coli = test: MIC in nutrient agar, Escherichia coli; assay type: cell-based, Escherichia coli (ATCC 11229); settings: Ec, 48 hours, read-out: Minimum Inhibitory Concentration (MIC)
Method: as §1, §2, §3, §4, §5, §6, §7

Bacillus subtilis = test: MIC in nutrient agar, Bacillus subtilis; assay type: cell-based, Bacillus subtilis (ATCC 8473); settings: Bs, 48 hours, read-out: Minimum Inhibitory Concentration (MIC)
Method: as §1, §2, §3, §4, §5, §6, §7

Fusarium oxysporum = test: MIC in malt yeast agar, Fusarium oxysporum; assay type: cell-based, Fusarium oxysporum (ATCC 48112); settings: Fo; malt yeast agar; 30° C.; 72 hours for fungi; read-out: Minimum Inhibitory Concentration (MIC)
Method: as §1, §8, §3, §9, §6, §7

Aspergillus niger = test: MIC in malt yeast agar, Aspergillus niger; assay type: cell-based, Aspergillus niger (ATCC 16404); settings: An; malt yeast agar; 30° C.; 72 hours for fungi; read-out: Minimum Inhibitory Concentration (MIC)
Method: as §1, §8, §3, §9, §6, §7

Candida albicans = test: MIC in malt yeast agar, Candida albicans; assay type: cell-based, Candida albicans (ATCC 10231); settings: Ca; malt yeast agar; 30° C.; 48 hours for yeast; read-out: Minimum Inhibitory Concentration (MIC)
Method: as §1, §8, §3, §9, §6, §7

Proteus vulgaris = test: MIC in nutrient agar, Proteus vulgaris; assay type: cell-based, Proteus vulgaris (ATCC 881); settings: Pv, 48 hours, read-out: Minimum Inhibitory Concentration (MIC)
Method: as §1, §2, §3, §4, §5, §6, §7

## N#CSCOc1nsnc1OCSC#N [Example 8, 3,4-Bis(thiocyanato-methyloxo)-1,2,5-thiadiazole]
[1]; pH 6.8, 30° C.
  MIC: 500 µg/mL (≈ 1920 µM)
[1]; pH 8.2, 30° C.
  MIC: 250 µg/mL (≈ 960 µM)
Enterobacter aerogenes; pH 6.8
  MIC: 250 µg/mL (≈ 960 µM)
Enterobacter aerogenes; pH 8.2
  MIC: 250 µg/mL (≈ 960 µM)
Klebsiella pneumonias; pH 6.8, 30° C.
  MIC: 100 µg/mL (≈ 384 µM)
Klebsiella pneumonias; pH 8.2, 30° C.
  MIC: 50 µg/mL (≈ 192 µM)
Pseudomonas aeruginosa; pH 6.8, 30° C.
  MIC: 250 µg/mL (≈ 960 µM)
Pseudomonas aeruginosa; pH 8.2, 30° C.
  MIC: 100 µg/mL (≈ 384 µM)
Trichoderma viride
  MIC: 50 µg/mL (≈ 192 µM)
Saccharomyces cerevisiae
  MIC: 25 µg/mL (≈ 96 µM)
Aureobasidium pullulan
  MIC: < 10 µg/mL
Staphylococcus aureus; pH 6.8, 30° C.
  MIC: 25 µg/mL (≈ 96 µM)
Staphylococcus aureus; pH 8.2, 30° C.
  MIC: 25 µg/mL (≈ 96 µM)
Salmonella choleraesuis; pH 6.8, 30° C.
  MIC: 25 µg/mL (≈ 96 µM)
Salmonella choleraesuis; pH 8.2, 30° C.
  MIC: 50 µg/mL (≈ 192 µM)
Penicillium chrysogenum
  MIC: < 10 µg/mL
Escherichia coli; pH 6.8, 30° C.
  MIC: 50 µg/mL (≈ 192 µM)
Escherichia coli; pH 8.2, 30° C.
  MIC: 100 µg/mL (≈ 384 µM)
Bacillus subtilis; pH 6.8, 30° C.
  MIC: < 10 µg/mL
Bacillus subtilis; pH 8.2, 30° C.
  MIC: 25 µg/mL (≈ 96 µM)
Fusarium oxysporum
  MIC: 25 µg/mL (≈ 96 µM)
Aspergillus niger
  MIC: < 10 µg/mL
Candida albicans
  MIC: 50 µg/mL (≈ 192 µM)
Proteus vulgaris; pH 6.8, 30° C.
  MIC: 25 µg/mL (≈ 96 µM)
Proteus vulgaris; pH 8.2, 30° C.
  MIC: 25 µg/mL (≈ 96 µM)
